The values below come from US10633419B2, “Immunomodulators” (BRISTOL-MYERS SQUIBB COMPANY, priority 2014, dated 2020).

Positions of bridges follow the written chain, without caps; N, C: chain ends. Non-standard residues stand in square brackets, D forms with d. Residues, ends and D or L forms follow the SMILES beside them. *: point of attachment. δOrn(Nα-Octadecanedioyl) = O=C(O)CCCCCCCCCCCCCCCCC(=O)N[C@@H](CCCN*)C(=O)O; Dap(Nα-HOOC(CH2)16CO)OH = O=C(O)CCCCCCCCCCCCCCCCC(=O)N[C@@H](CN*)C(=O)O; Trp(1-CH2COOH) = N[C@@H](Cc1cn(CC(=O)O)c2ccccc12)C(=O)O; X9 = O=C(O)CCCCCCCCCCCCCCCCC(=O)N[C@@H](CCN*)C(=O)O; NH(CH2)14COOH = O=C(O)CCCCCCCCCCCCCCN*; Phe(4-F) = N[C@@H](Cc1ccc(F)cc1)C(=O)O; Bta = N[C@@H](Cc1csc2ccccc12)C(=O)O; PEG6 = NCCOCCOCCOCCOCCOCCOCCC(=O)O; Stearoyl = CCCCCCCCCCCCCCCCCC(=O)*; Hyp = O=C(O)[C@@H]1C[C@@H](O)CN1; Myristoyl = CCCCCCCCCCCCCC(=O)*; NMeNle = CCCC[C@H](NC)C(=O)O; Pip = O=C(O)[C@@H]1CCCCN1; NMeA = CN[C@@H](C)C(=O)O; Pra = C#CC[C@H](N)C(=O)O; Aun = NCCCCCCCCCCC(=O)O; Dab = NCC[C@H](N)C(=O)O; Dap = NC[C@H](N)C(=O)O

T1 sequence (Q9NZQ7 with tags, fused parts or gaps): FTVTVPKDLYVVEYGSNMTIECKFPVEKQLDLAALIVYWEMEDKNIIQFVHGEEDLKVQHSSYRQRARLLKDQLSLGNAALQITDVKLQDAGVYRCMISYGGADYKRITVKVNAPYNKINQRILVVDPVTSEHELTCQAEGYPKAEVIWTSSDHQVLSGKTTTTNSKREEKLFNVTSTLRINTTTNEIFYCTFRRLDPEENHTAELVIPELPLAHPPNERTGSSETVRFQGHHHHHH

One assay has as its target T1, PD-L1 (Homo sapiens, UniProt Q9NZQ7).
T1 construct: hPDL1(19-239)-TVMV-His; made in house; host or cells: HEK293T
In words: PD-1/PD-L1 Homogenous Time-Resolved Fluorescence (HTRF) binding assay (PD-1-Ig/PD-L1-His). As to conditions: inhibition of PD-1-Ig binding to PD-L1-TVMV-His; value given as number; read-out: HTRF IC50. Put shortly: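 HTRF competition in dPBS with 0.1% BSA and 0.05% Tween-20: 20 nM PD-1-Ig added after 15 min compound pre-incubation with 10 nM PD-L1-His, then another 15 min. Signal (665/620 nm) after 30 min with APC anti-His (20 nM) and Eu anti-Ig (1 nM).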
Turning to `CCCC[C@H]1C(=O)N(C)[C@@H](CCCC)C(=O)N[C@@H](CC(C)C)C(=O)N[C@H](C(=O)NCC(=O)NCC(=O)NCC(=O)NCCCCCCCCCCC(=O)O)CSCC(=O)N[C@@H](Cc2ccc(O)cc2)C(=O)N(C)[C@@H](C)C(=O)N[C@@H](CCC(=O)O)C(=O)N2CCC[C@H]2C(=O)N[C@@H](Cc2cnc[nH]2)C(=O)N[C@@H](CCCCN)C(=O)N2C[C@H](O)C[C@H]2C(=O)N[C@@H](Cc2c[nH]c3ccccc23)C(=O)N[C@@H](CCCCN)C(=O)N[C@@H](Cc2cn(CC(=O)O)c3ccccc23)C(=O)N1C` [Example 11092] ({CH2CO}-Y[NMeA]EPHK[Hyp]WK[Trp(1-CH2COOH)][NMeNle][NMeNle]LCGGG[Aun]-OH; thioether N-14), the IC50 worked out at 0.0135 µM.
Regarding `CCCCCCCCCCCCCCCCCC(=O)NCCCC[C@H](NC(=O)[C@@H]1CSCC(=O)N[C@@H](Cc2ccc(O)cc2)C(=O)N(C)[C@@H](C)C(=O)N[C@@H](CC(N)=O)C(=O)N2CCC[C@H]2C(=O)N[C@@H](CCN)C(=O)N[C@@H](CC(C)C)C(=O)N2C[C@H](O)C[C@H]2C(=O)N[C@@H](Cc2c[nH]c3ccccc23)C(=O)N[C@@H](CO)C(=O)N[C@@H](Cc2c[nH]c3ccccc23)C(=O)N(C)[C@@H](CCCC)C(=O)N(C)[C@@H](CCCC)C(=O)N[C@@H](CCCNC(=N)N)C(=O)N1)C(N)=O` [Example 11001] ({CH2CO}-Y[NMeA]NP[Dab]L[Hyp]WSW[NMeNle][NMeNle]RCK(Stearoyl)-NH2; thioether N-14), the IC50 was 0.952 µM.

The assay is the same for the next values; noted with them: inhibition of PD-1-Ig binding to PD-L1-TVMV-His; value given as range class; read-out: HTRF IC50.
For `CCCC[C@H]1C(=O)N(C)[C@@H](CCCC)C(=O)N[C@@H](CC(C)C)C(=O)N[C@H](C(=O)NCC(=O)NCC(=O)NCC(=O)NCCCCCCCCCCC(=O)O)CSCC(=O)N[C@@H](Cc2ccc(O)cc2)C(=O)N(C)[C@@H](C)C(=O)N[C@@H](CC(=O)O)C(=O)N2CCC[C@H]2C(=O)N[C@@H](CN)C(=O)N[C@@H](CCC(=O)O)C(=O)N2C[C@H](O)C[C@H]2C(=O)N[C@@H](Cc2c[nH]c3ccccc23)C(=O)N[C@@H](CCN)C(=O)N[C@@H](Cc2cn(CC(=O)O)c3ccccc23)C(=O)N1C` [Example 11097] ({CH2CO}-Y[NMeA]DP[Dap]E[Hyp]W[Dab][Trp(1-CH2COOH)][NMeNle][NMeNle]LCGGG[Aun]-OH; thioether N-14), the IC50 was in the range of 0.01 to 0.099 µM.
Consider `CCCC[C@H]1C(=O)N(C)[C@@H](CCCC)C(=O)N[C@@H](CC(C)C)C(=O)N[C@H](C(=O)NCCOCCOCCOCCOCCOCCOCCC(=O)NC[C@H](NC(=O)CCCCCCCCCCCCCCCCC(=O)O)C(=O)O)CSCC(=O)N[C@@H](Cc2ccc(O)cc2)C(=O)N(C)[C@@H](C)C(=O)N[C@@H](CC(N)=O)C(=O)N2CCC[C@H]2C(=O)N[C@@H](CN)C(=O)N[C@@H](CC(C)C)C(=O)N2C[C@H](O)C[C@H]2C(=O)N[C@@H](Cc2c[nH]c3ccccc23)C(=O)N[C@@H](CCN)C(=O)N[C@@H](Cc2cn(CC(=O)O)c3ccccc23)C(=O)N1C` [Example 11180] ({CH2CO}-Y[NMeA]NP[Dap]L[Hyp]W[Dab][Trp(1-CH2COOH)][NMeNle][NMeNle]LC[PEG6]-{Dap(Nα-HOOC(CH2)16CO)OH}; thioether N-14), for which the IC50 was in the range of 0.01 to 0.099 µM.
Turning to `CCCCCCCCCCCCCC(=O)NCCCC[C@H](NC(=O)[C@H](CC(=O)O)NC(=O)CNC(=O)[C@@H]1CSCC(=O)N[C@@H](Cc2ccc(O)cc2)C(=O)N(C)[C@@H](C)C(=O)N[C@@H](CC(=O)O)C(=O)N2CCC[C@H]2C(=O)N[C@@H](Cc2cnc[nH]2)C(=O)N[C@@H](CC(C)C)C(=O)N2C[C@H](O)C[C@H]2C(=O)N[C@@H](Cc2c[nH]c3ccccc23)C(=O)N[C@@H](CO)C(=O)N[C@@H](Cc2c[nH]c3ccccc23)C(=O)N(C)[C@@H](CCCC)C(=O)N(C)[C@@H](CCCC)C(=O)N[C@@H](CCCNC(=N)N)C(=O)N1)C(N)=O` [Example 11016] ({CH2CO}-Y[NMeA]DPHL[Hyp]WSW[NMeNle][NMeNle]RCGDK(Myristoyl)-NH2; thioether N-14), the IC50 was 0.01 to 0.099 µM.
On to `CCCC[C@H]1C(=O)N(C)[C@@H](CCCC)C(=O)N[C@@H](CC(C)C)C(=O)N[C@H](C(=O)NCC(=O)N[C@@H](CC(=O)NCCC[C@H](NC(=O)CCCCCCCCCCCCCCCCC(=O)O)C(=O)O)C(=O)O)CSCC(=O)N[C@@H](Cc2ccc(F)cc2)C(=O)N2CCCC[C@H]2C(=O)N[C@@H](CC(=O)O)C(=O)N2CCC[C@H]2C(=O)N[C@@H](CN)C(=O)N[C@@H](CC(C)C)C(=O)N2C[C@H](O)C[C@H]2C(=O)N[C@@H](Cc2c[nH]c3ccccc23)C(=O)N[C@@H](CCN)C(=O)N[C@@H](Cc2cn(CC(=O)O)c3ccccc23)C(=O)N1C` [Example 13145] ({CH2CO}-[Phe(4-F)][Pip]DP[Dap]L[Hyp]W[Dab][Trp(1-CH2COOH)][NMeNle][NMeNle]LCGD(δOrn(Nα-Octadecanedioyl))-OH; thioether N-14), for which the IC50 lay in the range of 0.01 to 0.099 µM.
Take `CCCC[C@H]1C(=O)N(C)[C@@H](CCCC)C(=O)N[C@@H](CC(C)C)C(=O)N[C@H](C(=O)NCC(=O)NCC(=O)NCC(=O)NCCCCCCCCCCC(=O)O)CSCC(=O)N[C@@H](Cc2ccc(O)cc2)C(=O)N(C)[C@@H](C)C(=O)N[C@@H](CC(N)=O)C(=O)N2CCC[C@H]2C(=O)N[C@@H](CN)C(=O)N[C@@H](CC(C)C)C(=O)N2C[C@H](O)C[C@H]2C(=O)N[C@@H](Cc2c[nH]c3ccccc23)C(=O)N[C@@H](CCN)C(=O)N[C@@H](Cc2cn(CC(=O)O)c3ccccc23)C(=O)N1C` [Example 11091] ({CH2CO}-Y[NMeA]NP[Dap]L[Hyp]W[Dab][Trp(1-CH2COOH)][NMeNle][NMeNle]LCGGG[Aun]-OH; thioether N-14): the IC50 lay within 0.0003 to 0.0099 µM.
Same read-out and setting: then `C#CC[C@H](NC(=O)CNC(=O)[C@@H]1CSCC(=O)N[C@@H](Cc2ccc(O)cc2)C(=O)N(C)[C@@H](C)C(=O)N[C@@H](CC(=O)O)C(=O)N2CCC[C@H]2C(=O)N[C@@H](Cc2c[nH]cn2)C(=O)N[C@@H](CCCCN)C(=O)N2C[C@H](O)C[C@H]2C(=O)N[C@@H](Cc2c[nH]c3ccccc23)C(=O)N[C@@H](CCCCN)C(=O)N[C@@H](Cc2c[nH]c3ccccc23)C(=O)N(C)[C@@H](CCCC)C(=O)N(C)[C@@H](CCCC)C(=O)N[C@@H](CCC(=O)O)C(=O)N1)C(=O)N[C@@H](CC(=O)O)C(N)=O` [INT 1400B] ({CH2CO}-Y[NMeA]DPHK[Hyp]WKW[NMeNle][NMeNle]ECG[Pra]D-NH2; thioether N-14), with 0.0003 to 0.0099 µM; and `CCCC[C@H]1C(=O)N(C)[C@@H](CCCC)C(=O)N[C@@H](CCC(=O)O)C(=O)N[C@H](C(=O)NCC(=O)N[C@@H](Cc2cn(CC[C@H](NC(=O)CCCCCCCCCCCCCCCCC(=O)O)C(=O)O)nn2)C(=O)O)CSCC(=O)N[C@@H](Cc2ccc(OC)cc2)C(=O)N2CCCC[C@H]2C(=O)N[C@@H](CC(=O)O)C(=O)N2CCC[C@H]2C(=O)N[C@@H](CN)C(=O)N[C@@H](CCC(N)=O)C(=O)N2C[C@H](O)C[C@H]2C(=O)N[C@@H](Cc2c[nH]c3ccccc23)C(=O)N[C@@H](CCN)C(=O)N[C@@H](Cc2cn(CC(=O)O)c3ccccc23)C(=O)N1C` [Example 14121], with 0.01 to 0.099 µM.
Consider `CCCC[C@H]1C(=O)N(C)[C@@H](CCCC)C(=O)N[C@@H](CC(C)C)C(=O)N[C@H](C(=O)NCC(=O)NCCCCCCCCCCCCCCC(=O)O)CSCC(=O)N[C@@H](Cc2ccc(O)cc2)C(=O)N(C)[C@@H](C)C(=O)N[C@@H](CC(N)=O)C(=O)N2CCC[C@H]2C(=O)N[C@@H](CN)C(=O)N[C@@H](CC(C)C)C(=O)N2C[C@H](O)C[C@H]2C(=O)N[C@@H](Cc2c[nH]c3ccccc23)C(=O)N[C@@H](CCN)C(=O)N[C@@H](Cc2cn(CC(=O)O)c3ccccc23)C(=O)N1C` [Example 11197] ({CH2CO}-Y[NMeA]NP[Dap]L[Hyp]W[Dab][Trp(1-CH2COOH)][NMeNle][NMeNle]LCG-{NH(CH2)14COOH}; thioether N-14), for which the IC50 lay within 0.01 to 0.099 µM.
Still for that read-out and setting: then `C#CC[C@H](NC(=O)CNC(=O)[C@@H]1CSCC(=O)N[C@@H](Cc2ccc(O)cc2)C(=O)N(C)[C@@H](C)C(=O)N[C@@H](CC(=O)O)C(=O)N2CCC[C@H]2C(=O)N[C@@H](Cc2c[nH]cn2)C(=O)N[C@@H](CCCCN)C(=O)N2C[C@H](O)C[C@H]2C(=O)N[C@@H](Cc2c[nH]c3ccccc23)C(=O)N[C@@H](CCCCN)C(=O)N[C@@H](Cc2c[nH]c3ccccc23)C(=O)N(C)[C@@H](CCCC)C(=O)N(C)[C@@H](CCCC)C(=O)N[C@@H](CCC(=O)O)C(=O)N1)C(=O)NCC(N)=O` [INT 1400A] ({CH2CO}-Y[NMeA]DPHK[Hyp]WKW[NMeNle][NMeNle]ECG[Pra]G-NH2; thioether N-14), with 0.0003 to 0.0099 µM; and `CCCC[C@H]1C(=O)N(C)[C@@H](CCCC)C(=O)N[C@@H](CC(C)C)C(=O)N[C@H](C(=O)NCC(=O)N[C@@H](CC(=O)NCC[C@H](NC(=O)CCCCCCCCCCCCCCCCC(=O)O)C(=O)O)C(=O)O)CSCC(=O)N[C@@H](Cc2ccc(OC)cc2)C(=O)N2CCCC[C@H]2C(=O)N[C@@H](CC(=O)O)C(=O)N2CCC[C@H]2C(=O)N[C@@H](Cc2c[nH]cn2)C(=O)N[C@@H](CCC(N)=O)C(=O)N2C[C@H](O)C[C@H]2C(=O)N[C@@H](Cc2c[nH]c3ccccc23)C(=O)N[C@@H](CCN)C(=O)N[C@@H](Cc2cn(CC(=O)O)c3ccccc23)C(=O)N1C` [Example 13157] ({CH2CO}-Y(Me)[Pip]DPHQ[Hyp]W[Dab][Trp(1-CH2COOH)][NMeNle][NMeNle]LCGD(X9)-OH; thioether N-14), with 0.0003 to 0.0099 µM; and `C#CC[C@H](NC(=O)CNC(=O)[C@@H]1CSCC(=O)N[C@@H](Cc2ccc(O)cc2)C(=O)N(C)[C@@H](C)C(=O)N[C@@H](CC(N)=O)C(=O)N2CCC[C@H]2C(=O)N[C@@H](CN)C(=O)N[C@@H](CC(C)C)C(=O)N2C[C@H](O)C[C@H]2C(=O)N[C@@H](Cc2c[nH]c3ccccc23)C(=O)N[C@@H](CO)C(=O)N[C@@H](Cc2csc3ccccc23)C(=O)N(C)[C@@H](CCCC)C(=O)N(C)[C@@H](CCCC)C(=O)N[C@@H](CCCNC(=N)N)C(=O)N1)C(N)=O` [INT 1300A] ({CH2CO}-Y[NMeA]NP[Dap]L[Hyp]WS[Bta][NMeNle][NMeNle]RCG[Pra]-NH2; thioether N-14), with 0.0003 to 0.0099 µM.
